Results published in patent publication US20240182445A1 (ONO PHARMACEUTICAL CO., LTD., priority 2019, published 2024).

Target: T1, human TREK-1 (Homo sapiens, UniProt O95069)
T1 construct: expressed in transfected cells
T1 sequence (O95069 1-426): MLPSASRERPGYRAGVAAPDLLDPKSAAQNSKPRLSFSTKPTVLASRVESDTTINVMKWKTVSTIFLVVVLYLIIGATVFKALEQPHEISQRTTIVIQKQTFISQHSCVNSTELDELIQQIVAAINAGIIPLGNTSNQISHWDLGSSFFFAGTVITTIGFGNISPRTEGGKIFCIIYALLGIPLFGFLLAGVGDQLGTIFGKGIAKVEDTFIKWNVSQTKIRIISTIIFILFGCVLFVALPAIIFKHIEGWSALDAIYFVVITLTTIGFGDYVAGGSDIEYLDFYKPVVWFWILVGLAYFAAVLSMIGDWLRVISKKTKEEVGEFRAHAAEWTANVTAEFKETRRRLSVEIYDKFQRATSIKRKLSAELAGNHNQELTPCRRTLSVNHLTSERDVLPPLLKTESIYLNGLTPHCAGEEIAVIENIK
Assay: TREK-1 Thallium (Tl+) flux assay, Method 1
Type: cell-based
Conditions: TREK-1 Thallium (Tl+) flux assay; no *^12 (Method 2) mark on these rows
Outline: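 Readout: Thallos fluorescence ratio, taken 25 s post-thallium relative to the pre-thallium baseline average, then converted to % inhibition. Cells were CHO-K1 stably expressing human TREK-1, dye-loaded and exposed to test compound (vehicle 0.3% DMSO) for 10 min prior to thallium stimulation.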

Row | IC50 | SMILES
1 | 0.33 µM | CC(C)(C)OC(=O)N[C@H]1C[C@H](n2ncc(Cl)c2C(=O)Nc2ncc(C#Cc3ccccc3)cc2F)C1 [Compound 214, tert-butyl (trans-3-(4-chloro-5-((3-fluoro-5-(phenylethynyl)pyridin-2-yl)carbamoyl)-1H-pyrazol-1-yl)cyclobutyl)carbamate]
2 | 0.33 µM | CC(C)C(=O)N1CCC(Cn2ncc(Cl)c2C(=O)Nc2ncc(C#Cc3ccccc3)cc2F)C(F)(F)C1 (centres unmarked) [Compound 216, 4-chloro-1-((3,3-difluoro-1-isobutyrylpiperidin-4-yl)methyl)-N-(3-fluoro-5-(phenylethynyl)pyridin-2-yl)-1H-pyrazole-5-carboxamide]
3 | 0.34 µM | O=C(Nc1ncc(C#Cc2ccccc2)cc1F)c1c(Cl)cnn1CC1CCOC1 (centres unmarked) [Compound 217, 4-chloro-N-(3-fluoro-5-(phenylethynyl)pyridin-2-yl)-1-((tetrahydrofuran-3-yl)methyl)-1H-pyrazole-5-carboxamide]
4 | 0.34 µM | CO[C@@H](C)Cn1ncc(Cl)c1C(=O)Nc1ncc(C#Cc2ccccc2)cc1C [Compound 218, (S)-4-chloro-1-(2-methoxypropyl)-N-(3-methyl-5-(phenylethynyl)pyridin-2-yl)-1H-pyrazole-5-carboxamide]
5 | 0.34 µM | Cc1cc(C#Cc2ccccc2)cc(F)c1NC(=O)c1c(Cl)cnn1C[C@H]1CCOC1 [Compound 219, (R)-4-chloro-N-(2-fluoro-6-methyl-4-(phenylethynyl)phenyl)-1-((tetrahydrofuran-3-yl)methyl)-1H-pyrazole-5-carboxamide]
6 | 0.34 µM | Cc1cc(C#Cc2ccccc2)cnc1NC(=O)c1c(Cl)cnn1C1CCN(C(=O)C(C)(C)C)CC1 [Compound 220, 4-chloro-N-(3-methyl-5-(phenylethynyl)pyridin-2-yl)-1-(1-pivaloylpiperidin-4-yl)-1H-pyrazole-5-carboxamide]
7 | 0.34 µM | CC(C)(C)OC(=O)N[C@@H]1CC[C@@H](n2ncc(Cl)c2C(=O)Nc2ncc(C#Cc3ccccc3)cc2F)C1 [Compound 221, tert-butyl ((1R,3R)-3-(4-chloro-5-((3-fluoro-5-(phenylethynyl)pyridin-2-yl)carbamoyl)-1H-pyrazol-1-yl)cyclopentyl)carbamate]
8 | 0.34 µM | Cc1cc(C#Cc2ccccc2)cnc1NC(=O)c1c(Cl)cnn1C[C@@H]1CCN(C(=O)C(C)C)C[C@H]1F [Compound 222, 4-chloro-1-(((3S,4S)-3-fluoro-1-isobutyrylpiperidin-4-yl)methyl)-N-(3-methyl-5-(phenylethynyl)pyridin-2-yl)-1H-pyrazole-5-carboxamide]
9 | 0.34 µM | Cc1cc(C#Cc2ccc(F)cc2)cnc1NC(=O)c1c(Cl)cnn1CC1CCCN(C(=O)C2COCCO2)C1 (centres unmarked) [Compound 223, 1-((1-(1,4-dioxane-2-carbonyl)piperidin-3-yl)methyl)-4-chloro-N-(5-((4-fluorophenyl)ethynyl)-3-methylpyridin-2-yl)-1H-pyrazole-5-carboxamide]
10 | 0.75 µM | Cc1cc(C#Cc2ccccc2)cnc1NC(=O)c1c(Cl)cnn1[C@@H]1CCOC1 [Compound 224, (R)-4-chloro-N-(3-methyl-5-(phenylethynyl)pyridin-2-yl)-1-(tetrahydrofuran-3-yl)-1H-pyrazole-5-carboxamide]
11 | 0.35 µM | CC(C)(C)OC(=O)N1CCCC(n2ncc(Cl)c2C(=O)Nc2ncc(C#Cc3ccccc3)cc2F)CC1 (centres unmarked) [Compound 225, tert-butyl 4-(4-chloro-5-((3-fluoro-5-(phenylethynyl)pyridin-2-yl)carbamoyl)-1H-pyrazol-1-yl)azepane-1-carboxylate]
12 | 0.35 µM | Cc1cc(C#Cc2ccccc2F)cnc1NC(=O)c1c(Cl)cnn1CCC1CCN(C(=O)C2CC2)CC1 [Compound 226, 4-chloro-1-(2-(1-(cyclopropanecarbonyl)piperidin-4-yl)ethyl)-N-(5-((2-fluorophenyl)ethynyl)-3-methylpyridin-2-yl)-1H-pyrazole-5-carboxamide]
13 | 0.35 µM | O=C(Nc1ncc(C#Cc2ccccc2)cc1F)c1c(Cl)cnn1-c1ccc2c(c1)OCO2 [Compound 227, 1-(benzo[d][1,3]dioxol-5-yl)-4-chloro-N-(3-fluoro-5-(phenylethynyl)pyridin-2-yl)-1H-pyrazole-5-carboxamide]
14 | 0.35 µM | CC(=O)N1CCC(F)(Cn2ncc(Cl)c2C(=O)Nc2ncc(C#Cc3ccccc3)cc2F)CC1 [Compound 228, 1-((1-acetyl-4-fluoropiperidin-4-yl)methyl)-4-chloro-N-(3-fluoro-5-(phenylethynyl)pyridin-2-yl)-1H-pyrazole-5-carboxamide]
15 | 0.35 µM | Cc1cc(C#Cc2ccc(F)cc2)cnc1NC(=O)c1c(Cl)cnn1C1CCN(C(=O)C2CC2)C1 (centres unmarked) [Compound 229, 4-chloro-1-(1-(cyclopropanecarbonyl)pyrrolidin-3-yl)-N-(5-((4-fluorophenyl)ethynyl)-3-methylpyridin-2-yl)-1H-pyrazole-5-carboxamide]
16 | 0.35 µM | Cc1cc(C#Cc2ccc(F)cc2)cnc1NC(=O)c1c(Cl)cnn1C1CCN(C(=O)C2COCCO2)C1 (centres unmarked) [Compound 230, 1-(1-(1,4-dioxane-2-carbonyl)pyrrolidin-3-yl)-4-chloro-N-(5-((4-fluorophenyl)ethynyl)-3-methylpyridin-2-yl)-1H-pyrazole-5-carboxamide]
17 | 0.35 µM | Cc1cc(C#Cc2ccccc2)cnc1NC(=O)c1c(Cl)cnn1CC1CCN(C(=O)C(C)C)CC1(F)F (centres unmarked) [Compound 231, 4-chloro-1-((3,3-difluoro-1-isobutyrylpiperidin-4-yl)methyl)-N-(3-methyl-5-(phenylethynyl)pyridin-2-yl)-1H-pyrazole-5-carboxamide]
18 | 0.36 µM | Cc1cc(C#Cc2ccccc2)cnc1NC(=O)c1c(Cl)cnn1CC1CCOC1 (centres unmarked) [Compound 232, 4-chloro-N-(3-methyl-5-(phenylethynyl)pyridin-2-yl)-1-((tetrahydrofuran-3-yl)methyl)-1H-pyrazole-5-carboxamide]
19 | 0.36 µM | O=C(Nc1ncc(C#Cc2ccc(F)cc2)cc1F)c1c(Cl)cnn1CC1CCOCC1 [Compound 233, 4-chloro-N-(3-fluoro-5-((4-fluorophenyl)ethynyl)pyridin-2-yl)-1-((tetrahydro-2H-pyran-4-yl)methyl)-1H-pyrazole-5-carboxamide]
20 | 0.36 µM | CC(C)(C#N)Cn1ncc(Cl)c1C(=O)Nc1ncc(C#Cc2ccccc2)cc1F [Compound 234, 4-chloro-1-(2-cyano-2-methylpropyl)-N-(3-fluoro-5-(phenylethynyl)pyridin-2-yl)-1H-pyrazole-5-carboxamide]
21 | 0.36 µM | O=C(Nc1ncc(C#Cc2ccc(F)cc2)cc1F)c1c(Cl)cnn1[C@@H]1CCN(C(=O)C2COCCO2)C[C@H]1F (stereo partly drawn) [Compound 235, 1-((3R,4R)-1-(1,4-dioxane-2-carbonyl)-3-fluoropiperidin-4-yl)-4-chloro-N-(3-fluoro-5-((4-fluorophenyl)ethynyl)pyridin-2-yl)-1H-pyrazole-5-carboxamide]
22 | 0.36 µM | Cc1cc(C#Cc2ccccc2)cnc1NC(=O)c1c(Cl)cnn1CC1(F)CCN(C(=O)C(C)C)CC1 [Compound 236, 4-chloro-1-((4-fluoro-1-isobutyrylpiperidin-4-yl)methyl)-N-(3-methyl-5-(phenylethynyl)pyridin-2-yl)-1H-pyrazole-5-carboxamide]
23 | 0.37 µM | CC(C)(C)OC(=O)N1CCC(n2ncc(Cl)c2C(=O)Nc2ncc(C#Cc3ccccc3)cc2F)C1 (centres unmarked) [Compound 237, tert-butyl 3-(4-chloro-5-((3-fluoro-5-(phenylethynyl)pyridin-2-yl)carbamoyl)-1H-pyrazol-1-yl)pyrrolidine-1-carboxylate]
24 | 0.37 µM | CC(=O)N1CCC(n2ncc(Cl)c2C(=O)Nc2ncc(C#Cc3ccccc3)cc2C)C1 (centres unmarked) [Compound 238, 1-(1-acetylpyrrolidin-3-yl)-4-chloro-N-(3-methyl-5-(phenylethynyl)pyridin-2-yl)-1H-pyrazole-5-carboxamide]
25 | 0.37 µM | Cc1cc(C#Cc2ccccc2)cnc1NC(=O)c1c(Cl)cnn1C(C)CNC(=O)OC(C)(C)C (centres unmarked) [Compound 239, tert-butyl (2-(4-chloro-5-((3-methyl-5-(phenylethynyl)pyridin-2-yl)carbamoyl)-1H-pyrazol-1-yl)propyl)carbamate]
26 | 0.37 µM | CC(C)(C)OC(=O)N1CC[C@@H](Cn2ncc(Cl)c2C(=O)Nc2ncc(C#Cc3ccccc3)cc2F)[C@H](F)C1 [Compound 240, tert-butyl (3S,4S)-4-((4-chloro-5-((3-fluoro-5-(phenylethynyl)pyridin-2-yl)carbamoyl)-1H-pyrazol-1-yl)methyl)-3-fluoropiperidine-1-carboxylate]
27 | 0.37 µM | Cc1cc(C#Cc2ccccc2)cnc1NC(=O)c1c(Cl)cnn1C[C@@H]1CCN(C(=O)OC(C)(C)C)C[C@H]1F [Compound 241, tert-butyl (3S,4S)-4-((4-chloro-5-((3-methyl-5-(phenylethynyl)pyridin-2-yl)carbamoyl)-1H-pyrazol-1-yl)methyl)-3-fluoropiperidine-1-carboxylate]
28 | 0.38 µM | Cc1cc(C#Cc2ccccc2)cnc1NC(=O)c1c(Cl)cnn1CC1(C#N)CCCC1 [Compound 242, 4-chloro-1-((1-cyanocyclopentyl)methyl)-N-(3-methyl-5-(phenylethynyl)pyridin-2-yl)-1H-pyrazole-5-carboxamide]
29 | 0.38 µM | CC(C)(C)OC(=O)N1CC(n2ncc(Cl)c2C(=O)Nc2ncc(C#Cc3ccccc3)cc2F)C1 [Compound 243, tert-butyl 3-(4-chloro-5-((3-fluoro-5-(phenylethynyl)pyridin-2-yl)carbamoyl)-1H-pyrazol-1-yl)azetidine-1-carboxylate]
